Test [1] concerns Trachea. The test is described as follows: Induction of bronchodilation in guinea pig tracheal rings assessed as reduction in histamine-induced contractions. Type of test: functional, tissue-based. The settings on record: Cavia porcellus.
Test [2] deals with Trachea. In words: Potency index, ratio of theophylline IC50 to test compound IC50 for reduction in histamine-induced contractions in guinea pig tracheal rings. It counts as functional, Cavia porcellus.

Usually IC50 stands for the concentration needed to halve the response being measured. On to `COc1nc(-c2ccncc2)cc(-c2ccc(Cl)cc2Cl)c1C#N`, for which the 50% inhibitory concentration (IC50) with Trachea [1] was determined as 11.8 µM.
The same measure, in the same setting: to `N#Cc1c(-c2ccc(Cl)cc2Cl)cc(-c2ccc(Cl)cc2)nc1N1CCOCC1` belongs 6.71 µM.
Still for that read-out and setting: under `CCOc1nc(-c2cccs2)cc(-c2ccc(Cl)cc2Cl)c1C#N` stands 8.71 µM.
Turning to `COc1nc(-c2ccccc2)cc(-c2ccc(Cl)cc2Cl)c1C#N`, in the test on Trachea [1], the IC50 is 5.34 µM. Also, in the test on Trachea [2], the “Ratio IC50” value came to 2.
On to `CCOc1nc2c(c(-c3ccc(Cl)cc3Cl)c1C#N)-c1ccccc1CC2`, for which, in the test with Trachea [1], the 50% inhibitory concentration (IC50) came out at 7.07 µM.
Same read-out and setting: to `COc1nc(-c2ccc(Br)cc2)cc(-c2ccc(Cl)cc2Cl)c1C#N` belongs 8.02 µM; to `COc1ccc(-c2cc(-c3ccc(Cl)cc3Cl)c(C#N)c(OC)n2)cc1`, 9.89 µM.
Same read-out and setting: to `COc1nc2c(c(-c3ccc(Cl)cc3Cl)c1C#N)CSc1ccccc1-2` belongs 11 µM.
`N#Cc1c(-c2ccc(Cl)cc2Cl)cc(-c2ccc(Cl)cc2)nc1Br`: in the test on Trachea [1], the IC50 came out at 9.14 µM.
On the same count and under the same terms, to `COc1cc2c(cc1OC)-c1nc(OC)c(C#N)c(-c3ccc(Cl)cc3Cl)c1C2` belongs 6.8 µM; to `COc1nc(-c2cccs2)cc(-c2ccc(Cl)cc2Cl)c1C#N`, 3.28 µM; to `COc1nc2c(c(-c3ccc(Cl)cc3Cl)c1C#N)-c1ccccc1C2`, 9.11 µM.
Consider `CN1CCN(c2nc(-c3ccc(Cl)cc3)cc(-c3ccc(Cl)cc3Cl)c2C#N)CC1`, for which, in the test on Trachea [1], the IC50 was 13 µM.
As for `COc1nc2c(c(-c3ccc(Cl)cc3Cl)c1C#N)CCCc1ccccc1-2`, the concentration for half-maximal inhibition (IC50) in the test with Trachea [1] came out at 10 µM.
As for `COc1nc(-c2ccc3ccccc3c2)cc(-c2ccc(Cl)cc2Cl)c1C#N`, the IC50 in the test on Trachea [1] turned out to be 9.4 µM.
The same measure, in the same setting: to `CCOc1nc(-c2ccc(F)cc2)cc(-c2ccc(Cl)cc2Cl)c1C#N` belongs 8.02 µM; to `COc1nc(-c2ccc(Cl)cc2)cc(-c2ccc(Cl)cc2Cl)c1C#N`, 7.55 µM.
Still for that read-out and setting: under `COc1nc(-c2ccc(C)cc2)cc(-c2ccc(Cl)cc2Cl)c1C#N` stands 10.6 µM; under `CCN1CCN(c2nc(-c3ccc(Cl)cc3)cc(-c3ccc(Cl)cc3Cl)c2C#N)CC1`, 15.8 µM.
On to `N#Cc1c(-c2ccc(Cl)cc2Cl)cc(-c2ccc(Cl)cc2)nc1N1CCCCC1`, for which the half-maximal inhibitory concentration (IC50) in the test on Trachea [1] came to 7.83 µM.
The same measure, in the same setting: to `COc1nc2c(c(-c3ccc(Cl)cc3Cl)c1C#N)-c1ccccc1CC2` belongs 6.36 µM; to `CCOc1nc(-c2ccc(Br)cc2)cc(-c2ccc(Cl)cc2Cl)c1C#N`, 12.4 µM.
On to `COc1nc(-c2cccnc2)cc(-c2ccc(Cl)cc2Cl)c1C#N`, for which the half-maximal inhibitory concentration (IC50) in the test on Trachea [1] amounted to 17.1 µM.
Same read-out and setting: under `COc1ccc(-c2cc(-c3ccc(Cl)cc3Cl)c(C#N)c(OC)n2)cc1OC` stands 7.91 µM; under `CCOc1nc2c(c(-c3ccc(Cl)cc3Cl)c1C#N)-c1ccccc1C2`, 11 µM.
On the same count and under the same terms, to `CCOc1nc2c(c(-c3ccc(Cl)cc3Cl)c1C#N)CCCc1ccccc1-2` belongs 13 µM.
On the same count and under the same terms, to `COc1nc(-c2ccc(F)cc2)cc(-c2ccc(Cl)cc2Cl)c1C#N` belongs 7.43 µM.
Regarding `COc1nc2c(c(-c3ccc(Cl)cc3Cl)c1C#N)COc1ccccc1-2`, the half-inhibitory concentration (IC50) in the test with Trachea [1] amounted to 6.11 µM.
The same measure, in the same setting: under `CCOc1nc(-c2ccc(Cl)cc2)cc(-c2ccc(Cl)cc2Cl)c1C#N` stands 9.38 µM; under `Cn1c(=O)c2nc[nH]c2n(C)c1=O` [THEOPHYLLINE], 11.6 µM.

(Values after ChEMBL document CHEMBL4130361, “Synthesis, molecular modeling studies and bronchodilation properties of nicotinonitrile containing-compounds” (Eur J Med Chem, 2017).)
